Results: PMC10301845, “Characterization of a Novel M4 PAM PET Radioligand [11C]PF06885190 in Nonhuman Primates (NHP)” (Molecules, 2023)
Like-named read-outs stand apart in the source and are kept apart here.

What was measured:
[1] = Stability of the radioligand in the formulation (analytical HPLC); assay type: physicochemical; conditions: sterile PBS formulation; up to 60 min / 1 h after end of synthesis
Procedure: The radiochemical purity and stability of [^11C]PF06885190 was determined by an analytical HPLC system coupled with an analytical XBridge column (C18 5 µm, 4.6 × 150 mm particle size), a Merck Hitachi L-7100 Pump, a L-7400 UV detector and a GM-tube for radioactivity detection (VWR International). A mixture of acetonitrile (30%) and HCO2NH4 (0.1 M aq. solution) (70%) with a flow rate of 2 mL/min was used as the HPLC isocratic mobile phase. The HPLC elution profile was monitored with an UV absorbance detector (ƛ = 254 nm) coupled to a radioactive detector (BETA-flow, Beckman, Fullerton, CA). [^11C]PF-06885190 was eluted with a retention time of (tR) 4.0–4.5 min (Figure S3, Supplementary Material) and the run time of the HPLC program was 8 min. The identity of the radiolabeled compounds was confirmed by HPLC with the co-injection of the corresponding authentic reference standard. The MA was calculated by analytical HPLC following the method described previously reported.

[2] = Protein binding in plasma (ultrafiltration); assay type: in vitro ADME, monkey; conditions: male, cynomolgus, monkey, plasma, read-out: free fraction in plasma
Procedure: (§1) The free fraction (fp) in blood plasma was measured using an ultrafiltration method with the blood sample collected before the injection of [^11C]PF06885190. Plasma (0.4 mL) was mixed with [^11C]PF06885190 formulation (0.04 mL, ~1 MBq) and incubated at room temperature (RT) for 10 min. To estimate the non-specific binding percent, the same process was performed on phosphate buffered saline (PBS) (0.4 mL) as a control solution. After the incubation, 0.2 mL of the plasma and PBS incubated mixtures were pipetted into ultrafiltration tubes (Centrifree YM-30, molecular weight cutoff, 30,000 Da; Millipore: Billerica, MA, USA) and centrifuged at 3800 rpm for 15 min. Equal aliquots (0.02 mL) of the ultrafiltrate (Cfree) and the plasma (Ctotal) were counted for their radioactivity with a NaI well-counter. Each determination was performed in triplicate. The free fraction was then calculated as fp = Cfree/Ctotal, and the results were corrected for the membrane binding measured with the control samples.

monkey plasma proteins = assay: Protein binding in plasma (ultrafiltration); assay type: in vitro ADME
Procedure: as §1

[3] = after pretreatment with donepezil

In the case of `Cc1nc(N[11CH3])c2c(c1C)CN(C(=O)C[C@H]1C[C@@H]1c1ccc(F)nc1)C2` [[^11C]PF06885190], the “stability in formulation, radiochemical purity” value [1] is reported as “exceeding 99%”, the fraction unbound at 10 min [2, 3] is reported as 0.121 and the fraction unbound at 10 min ([2]; baseline) is reported as 0.248. The “Binding to monkey plasma proteins” value (monkey plasma proteins; [3]) was 87.9 ± 0.3% and the “Binding to monkey plasma proteins” value (monkey plasma proteins; baseline) was 75.2 ± 4.2%.
